Measurements published in PubChem BioAssay (NCI).
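1) Cells in 96-well plates. 2) Compound, 48 h, 5 concentrations. 3) Linear interpolation between surrounding doses. 4) Unreached endpoint = highest concentration. Definition used: TGI = concentration required for complete inhibition of growth.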

The compounds below were run on SW-620 colon (assay: inhibition of tumour cell growth, NCI panel, 48 h).

Row | Structure (SMILES) | TGI [µM]
1 | N#Cc1n[nH]n(-c2ccc(Br)cc2)c1=O | > 100
2 | CO[C@@]12C[C@@H](C)C3=CCC(C)=C3CC1=C(C)C(=O)O2 | > 100
3 | N=C(N)C1CN(CCc2c[nH]c3ccccc23)C(=O)NC1=O (stereo not drawn) | > 100
4 | O=c1[nH]nnc2c1sc1ncccc12 | > 100
5 | Fc1ccc2c(c1)nc1n2C(c2c(Cl)cccc2Cl)SC1 (stereo not drawn) | 27.6
6 | CCOC1(OCC)C2C=CC1C(COS(=O)(=O)c1ccc(C)cc1)C2COS(=O)(=O)c1ccc(C)cc1 (stereo not drawn) | > 100
7 | O=C1Nc2cccc(Cl)c2/C1=C\c1c(Cl)nc2n1CCS2 | > 100
8 | CC(=O)CCn1c(=S)sc2ccccc21 | > 100
9 | C=CCc1cccc2cc(C(=O)NCc3ccccc3)c(=N)oc12 | > 100
10 | CC1CC(OP(=O)(OCc2ccccc2)OCc2ccccc2)[C@@H](OCc2ccccc2)C(OCc2ccccc2)C1OCc1ccccc1 (stereo partly drawn) | > 100
11 | COc1cc(OC)c2nc(C)c(CCCl)c(Cl)c2c1 | > 100
12 | C[C@H]1[C@H]2[C@H]3CC[C@@H]4[C@@]5(C)CC[C@H](O)C(C)(C)[C@@H]5CC[C@@]4(C)[C@]3(C)C[C@H](O)[C@@]2(C)C[C@H]2O[C@]21C | 70.1
13 | N#C[C@H](c1ccccn1)c1nc2ccccc2nc1Cl | > 100
14 | Cc1c(C)c2c(c(N)c1C#N)C(=O)N(NC(=O)c1ccccc1)C2=O | > 100
15 | O=C(/C=C/c1ccccc1)CCC1C(=O)c2ccccc2C1=O | > 100
16 | CCOC(=O)CCC(NC(=O)Cc1ccc(Nc2nc3cc(F)c(F)cc3nc2C(=O)OCC)cc1)C(=O)OCC (stereo not drawn) | > 100

The compounds below were run on PC-3 prostate (assay: inhibition of tumour cell growth, NCI panel, 48 h).

Row | Structure (SMILES) | TGI [µM]
17 | CC(=O)Nc1sc(Br)cc1S(=O)(=O)c1ccc(Cl)cc1 | 43.1
18 | CC1(C)C(C#N)C1C1=C(N2CCOCC2)[C@]2(C)C(OC(=O)c3ccccc3)CC[C@@H]2C1 (stereo partly drawn) | > 100
19 | CN(CCSCCN(C)C(=O)OC(C)(C)C)C(=O)OC(C)(C)C | > 100
20 | N#Cc1n[nH]n(-c2ccc(Br)cc2)c1=O | > 100
21 | CO[C@@]12C[C@@H](C)C3=CCC(C)=C3CC1=C(C)C(=O)O2 | > 100
22 | N=C(N)C1CN(CCc2c[nH]c3ccccc23)C(=O)NC1=O (stereo not drawn) | > 100
23 | O=c1[nH]nnc2c1sc1ncccc12 | > 100
24 | Fc1ccc2c(c1)nc1n2C(c2c(Cl)cccc2Cl)SC1 (stereo not drawn) | 28.3
25 | CCOC1(OCC)C2C=CC1C(COS(=O)(=O)c1ccc(C)cc1)C2COS(=O)(=O)c1ccc(C)cc1 (stereo not drawn) | 74.6
26 | O=C1Nc2cccc(Cl)c2/C1=C\c1c(Cl)nc2n1CCS2 | > 100
27 | CC(=O)CCn1c(=S)sc2ccccc21 | > 100
28 | C=CCc1cccc2cc(C(=O)NCc3ccccc3)c(=N)oc12 | > 100
29 | CC1CC(OP(=O)(OCc2ccccc2)OCc2ccccc2)[C@@H](OCc2ccccc2)C(OCc2ccccc2)C1OCc1ccccc1 (stereo partly drawn) | > 100
30 | COc1cc(OC)c2nc(C)c(CCCl)c(Cl)c2c1 | > 100
31 | C[C@H]1[C@H]2[C@H]3CC[C@@H]4[C@@]5(C)CC[C@H](O)C(C)(C)[C@@H]5CC[C@@]4(C)[C@]3(C)C[C@H](O)[C@@]2(C)C[C@H]2O[C@]21C | 27.1
32 | N#C[C@H](c1ccccn1)c1nc2ccccc2nc1Cl | > 100
33 | Cc1c(C)c2c(c(N)c1C#N)C(=O)N(NC(=O)c1ccccc1)C2=O | > 100
34 | O=C(/C=C/c1ccccc1)CCC1C(=O)c2ccccc2C1=O | > 100
35 | CC(=O)OC(OC(C)=O)c1ccc2ccc3cccc4ccc1c2c34 | 65.6
36 | CCOC(=O)CCC(NC(=O)Cc1ccc(Nc2nc3cc(F)c(F)cc3nc2C(=O)OCC)cc1)C(=O)OCC (stereo not drawn) | > 100

What follows are compounds tested on OVCAR-5 ovarian (assay: inhibition of tumour cell growth, NCI panel, 48 h).

Row | Structure (SMILES) | TGI [µM]
37 | CC(=O)Nc1sc(Br)cc1S(=O)(=O)c1ccc(Cl)cc1 | > 100
38 | CC1(C)C(C#N)C1C1=C(N2CCOCC2)[C@]2(C)C(OC(=O)c3ccccc3)CC[C@@H]2C1 (stereo partly drawn) | > 100
39 | CN(CCSCCN(C)C(=O)OC(C)(C)C)C(=O)OC(C)(C)C | > 100
40 | N#Cc1n[nH]n(-c2ccc(Br)cc2)c1=O | > 100
41 | CO[C@@]12C[C@@H](C)C3=CCC(C)=C3CC1=C(C)C(=O)O2 | > 100
42 | N=C(N)C1CN(CCc2c[nH]c3ccccc23)C(=O)NC1=O (stereo not drawn) | > 100
43 | O=c1[nH]nnc2c1sc1ncccc12 | > 100
44 | Fc1ccc2c(c1)nc1n2C(c2c(Cl)cccc2Cl)SC1 (stereo not drawn) | 28.9
45 | CCOC1(OCC)C2C=CC1C(COS(=O)(=O)c1ccc(C)cc1)C2COS(=O)(=O)c1ccc(C)cc1 (stereo not drawn) | > 100
46 | O=C1Nc2cccc(Cl)c2/C1=C\c1c(Cl)nc2n1CCS2 | > 100
47 | CC(=O)CCn1c(=S)sc2ccccc21 | > 100
48 | C=CCc1cccc2cc(C(=O)NCc3ccccc3)c(=N)oc12 | > 100
49 | CC1CC(OP(=O)(OCc2ccccc2)OCc2ccccc2)[C@@H](OCc2ccccc2)C(OCc2ccccc2)C1OCc1ccccc1 (stereo partly drawn) | > 100
50 | COc1cc(OC)c2nc(C)c(CCCl)c(Cl)c2c1 | > 100
51 | C[C@H]1[C@H]2[C@H]3CC[C@@H]4[C@@]5(C)CC[C@H](O)C(C)(C)[C@@H]5CC[C@@]4(C)[C@]3(C)C[C@H](O)[C@@]2(C)C[C@H]2O[C@]21C | 58.4
52 | N#C[C@H](c1ccccn1)c1nc2ccccc2nc1Cl | > 100
53 | Cc1c(C)c2c(c(N)c1C#N)C(=O)N(NC(=O)c1ccccc1)C2=O | > 100
54 | O=C(/C=C/c1ccccc1)CCC1C(=O)c2ccccc2C1=O | > 100
55 | CC(=O)OC(OC(C)=O)c1ccc2ccc3cccc4ccc1c2c34 | 41.8
56 | CCOC(=O)CCC(NC(=O)Cc1ccc(Nc2nc3cc(F)c(F)cc3nc2C(=O)OCC)cc1)C(=O)OCC (stereo not drawn) | > 100

These compounds were tested on U251 CNS (assay: inhibition of tumour cell growth, NCI panel, 48 h).

Row | Structure (SMILES) | TGI [µM]
57 | CC(=O)Nc1sc(Br)cc1S(=O)(=O)c1ccc(Cl)cc1 | > 100
58 | CC1(C)C(C#N)C1C1=C(N2CCOCC2)[C@]2(C)C(OC(=O)c3ccccc3)CC[C@@H]2C1 (stereo partly drawn) | > 100
59 | CN(CCSCCN(C)C(=O)OC(C)(C)C)C(=O)OC(C)(C)C | > 100
60 | N#Cc1n[nH]n(-c2ccc(Br)cc2)c1=O | > 100
61 | CO[C@@]12C[C@@H](C)C3=CCC(C)=C3CC1=C(C)C(=O)O2 | > 100
62 | N=C(N)C1CN(CCc2c[nH]c3ccccc23)C(=O)NC1=O (stereo not drawn) | > 100
63 | O=c1[nH]nnc2c1sc1ncccc12 | > 100
64 | Fc1ccc2c(c1)nc1n2C(c2c(Cl)cccc2Cl)SC1 (stereo not drawn) | 25.8
65 | CCOC1(OCC)C2C=CC1C(COS(=O)(=O)c1ccc(C)cc1)C2COS(=O)(=O)c1ccc(C)cc1 (stereo not drawn) | > 100
66 | O=C1Nc2cccc(Cl)c2/C1=C\c1c(Cl)nc2n1CCS2 | > 100
67 | CC(=O)CCn1c(=S)sc2ccccc21 | > 100
68 | C=CCc1cccc2cc(C(=O)NCc3ccccc3)c(=N)oc12 | > 100
69 | CC1CC(OP(=O)(OCc2ccccc2)OCc2ccccc2)[C@@H](OCc2ccccc2)C(OCc2ccccc2)C1OCc1ccccc1 (stereo partly drawn) | > 100
70 | COc1cc(OC)c2nc(C)c(CCCl)c(Cl)c2c1 | > 100
71 | C[C@H]1[C@H]2[C@H]3CC[C@@H]4[C@@]5(C)CC[C@H](O)C(C)(C)[C@@H]5CC[C@@]4(C)[C@]3(C)C[C@H](O)[C@@]2(C)C[C@H]2O[C@]21C | 33.7
72 | N#C[C@H](c1ccccn1)c1nc2ccccc2nc1Cl | > 100
73 | Cc1c(C)c2c(c(N)c1C#N)C(=O)N(NC(=O)c1ccccc1)C2=O | > 100
74 | O=C(/C=C/c1ccccc1)CCC1C(=O)c2ccccc2C1=O | > 100
75 | CC(=O)OC(OC(C)=O)c1ccc2ccc3cccc4ccc1c2c34 | 41.8
76 | CCOC(=O)CCC(NC(=O)Cc1ccc(Nc2nc3cc(F)c(F)cc3nc2C(=O)OCC)cc1)C(=O)OCC (stereo not drawn) | > 100

The compounds below were run on SK-MEL-5 melanoma (assay: inhibition of tumour cell growth, NCI panel, 48 h).

Row | Structure (SMILES) | TGI [µM]
77 | CC1(C)C(C#N)C1C1=C(N2CCOCC2)[C@]2(C)C(OC(=O)c3ccccc3)CC[C@@H]2C1 (stereo partly drawn) | > 100
78 | CN(CCSCCN(C)C(=O)OC(C)(C)C)C(=O)OC(C)(C)C | > 100
79 | CO[C@@]12C[C@@H](C)C3=CCC(C)=C3CC1=C(C)C(=O)O2 | > 100
80 | N=C(N)C1CN(CCc2c[nH]c3ccccc23)C(=O)NC1=O (stereo not drawn) | > 100
81 | O=c1[nH]nnc2c1sc1ncccc12 | > 100
82 | Fc1ccc2c(c1)nc1n2C(c2c(Cl)cccc2Cl)SC1 (stereo not drawn) | 21.1
83 | CCOC1(OCC)C2C=CC1C(COS(=O)(=O)c1ccc(C)cc1)C2COS(=O)(=O)c1ccc(C)cc1 (stereo not drawn) | 31
84 | O=C1Nc2cccc(Cl)c2/C1=C\c1c(Cl)nc2n1CCS2 | > 100
85 | CC(=O)CCn1c(=S)sc2ccccc21 | > 100
86 | C=CCc1cccc2cc(C(=O)NCc3ccccc3)c(=N)oc12 | 64.4
87 | CC1CC(OP(=O)(OCc2ccccc2)OCc2ccccc2)[C@@H](OCc2ccccc2)C(OCc2ccccc2)C1OCc1ccccc1 (stereo partly drawn) | > 100
88 | C[C@H]1[C@H]2[C@H]3CC[C@@H]4[C@@]5(C)CC[C@H](O)C(C)(C)[C@@H]5CC[C@@]4(C)[C@]3(C)C[C@H](O)[C@@]2(C)C[C@H]2O[C@]21C | 42.6
89 | N#C[C@H](c1ccccn1)c1nc2ccccc2nc1Cl | > 100
90 | Cc1c(C)c2c(c(N)c1C#N)C(=O)N(NC(=O)c1ccccc1)C2=O | > 100
91 | O=C(/C=C/c1ccccc1)CCC1C(=O)c2ccccc2C1=O | > 100
92 | CC(=O)OC(OC(C)=O)c1ccc2ccc3cccc4ccc1c2c34 | 32.8
93 | CCOC(=O)CCC(NC(=O)Cc1ccc(Nc2nc3cc(F)c(F)cc3nc2C(=O)OCC)cc1)C(=O)OCC (stereo not drawn) | > 100
